Experimental data published in patent publication US20230091047A1 (priority 2019, published 2023).

Columns and labels:
in vitro = format: cell-based; details: human, HepG2 or HepG2.117 cells, 3-days incubation (unmarked values), ATPlite; mean value
Procedure, shortened: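 Luminescent ATP quantitation served as the viability endpoint following a 3- or 4-day incubation with test compounds.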

[1] = tested on: HBV (HepG2.117 cell line, inducibly HBV producing); assay: Anti-HBV activity: intracellular HBV DNA by real-time PCR in HepG2.117 cells after 3 days of treatment; format: cell-based, hepatitis B virus; details: Hepatitis B virus, HepG2.117, 72 h, HepG2.117 cells, 3 days of treatment, intracellular HBV DNA by real-time PCR; mean value; read-out: EC50 (μM, mean value)
Procedure, shortened: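 First, HBV replication is induced in HepG2.117 cells by doxycycline absence. Next, serially diluted compound is added for 3 days. Finally, intracellular HBV DNA is quantified by HBV-specific real-time PCR.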

SMILES | CC50 at 3 days (in vitro) [µM] | EC50 [1] [µM]
O=C(c1ccc(Cl)c(Cl)c1)N1CCc2c(nc(NCc3ccccc3)n(-c3ccccc3)c2=O)C1 [Compound C33, 2-(benzylamino)-7-(3,4-dichlorobenzoyl)-3-phenyl-5,6,7,8-tetrahydropyrido[3,4-d]pyrimidin-4(3H)-one] | 24.4 | 4.27
COc1ccc(CNc2nc3c(c(=O)[nH]2)CCN(C(=O)c2ccc(Cl)c(Cl)c2)C3)cc1 [Compound C34, 7-(3,4-dichlorobenzoyl)-2-{[(4-methoxyphenyl)methyl]amino}-5,6,7,8-tetrahydropyrido[3,4-d]pyrimidin-4(3H)-one] | 26.6 | 4.03
COc1ccccc1-n1c(N[C@@H](C)c2ccccc2)nc2c(c1=O)CCN(C(=O)c1ccc(Cl)c(Cl)c1)C2 [Compound C35, 7-(3,4-dichlorobenzoyl)-3-(2-methoxyphenyl)-2-{[(1S)-1-phenylethyl]amino}-5,6,7,8-tetrahydropyrido[3,4-d]pyrimidin-4(3H)-one] | 33.2 | 1.41
COc1ccc(CNc2nc3c(c(=O)n2-c2ccccc2OC)CC(C)N(C(=O)c2ccc(Cl)c(Cl)c2)C3)cc1 (stereo not drawn) [Compound C36, 7-(3,4-dichlorobenzoyl)-3-(2-methoxyphenyl)-2-{[(4-methoxyphenyl)methyl]amino}-6-methyl-5,6,7,8-tetrahydropyrido[3,4-d]pyrimidin-4(3H)-one] | > 50 | 1.26
COc1ccccc1-n1c(NCCO)nc2c(c1=O)CCN(C(=O)c1ccc(Cl)c(Cl)c1)C2 [Compound C37, 7-(3,4-dichlorobenzoyl)-2-[(2-hydroxyethyl)amino]-3-(2-methoxyphenyl)-5,6,7,8-tetrahydropyrido[3,4-d]pyrimidin-4(3H)-one] | > 50 | 32.1
CCNc1nc2c(c(=O)n1-c1ccccc1OC)CCN(C(=O)c1ccc(Cl)c(Cl)c1)C2 [Compound C38, 7-(3,4-dichlorobenzoyl)-2-(ethylamino)-3-(2-methoxyphenyl)-5,6,7,8-tetrahydropyrido[3,4-d]pyrimidin-4(3H)-one] | > 50 | 6.87
COc1ccccc1-n1c(N2CCCC2)nc2c(c1=O)CCN(C(=O)c1ccc(Cl)c(Cl)c1)C2 [Compound C39, 7-(3,4-dichlorobenzoyl)-3-(2-methoxyphenyl)-2-(pyrrolidin-1-yl)-5,6,7,8-tetrahydropyrido[3,4-d]pyrimidin-4(3H)-one] | > 50 | 9.21
COc1ccccc1-n1c(N2CCOCC2)nc2c(c1=O)CCN(C(=O)c1ccc(Cl)c(Cl)c1)C2 [Compound C40, 7-(3,4-dichlorobenzoyl)-3-(2-methoxyphenyl)-2-(morpholin-4-yl)-5,6,7,8-tetrahydropyrido[3,4-d]pyrimidin-4(3H)-one] | > 50 | 11
COc1ccc(CNc2nc3c(c(=O)n2Cc2ccccc2)CCN(C(=O)c2ccc(Cl)c(Cl)c2)C3)cc1 [Compound C41, 3-benzyl-7-(3,4-dichlorobenzoyl)-2-{[(4-methoxyphenyl)methyl]amino}-5,6,7,8-tetrahydropyrido[3,4-d]pyrimidin-4(3H)-one] | > 50 | 8.7
CC(C)Nc1nc2c(c(=O)[nH]1)CCN(C(=O)c1ccc(Cl)c(Cl)c1)C2 [Compound C42, 7-(3,4-dichlorobenzoyl)-2-[(propan-2-yl)amino]-5,6,7,8-tetrahydropyrido[3,4-d]pyrimidin-4(3H)-one] | > 50 | 2.79
COc1ccc(CN(C)c2nc3c(c(=O)n2-c2ccccc2OC)CCN(C(=O)c2ccc(Cl)c(Cl)c2)C3)cc1 [Compound C43, 7-(3,4-dichlorobenzoyl)-3-(2-methoxyphenyl)-2-{[(4-methoxyphenyl)methyl](methyl)amino}-5,6,7,8-tetrahydropyrido[3,4-d]pyrimidin-4(3H)-one] | > 50 | 5.64
COc1ccccc1-n1c(N[C@H](C)c2ccccc2)nc2c(c1=O)CCN(C(=O)c1ccc(Cl)c(Cl)c1)C2 [Compound C44, 7-(3,4-dichlorobenzoyl)-3-(2-methoxyphenyl)-2-{[(1R)-1-phenylethyl]amino}-5,6,7,8-tetrahydropyrido[3,4-d]pyrimidin-4(3H)-one] | 25.3 | 6.99
COc1ccccc1-n1c(NC2CCCC2)nc2c(c1=O)CCN(C(=O)c1ccc(Cl)c(Cl)c1)C2 [Compound C45, 2-(cyclopentylamino)-7-(3,4-dichlorobenzoyl)-3-(2-methoxyphenyl)-5,6,7,8-tetrahydropyrido[3,4-d]pyrimidin-4(3H)-one] | 27.2 | 6.62
COc1ccccc1-n1c(N(C)C)nc2c(c1=O)CCN(C(=O)c1ccc(Cl)c(Cl)c1)C2 [Compound C46, 7-(3,4-dichlorobenzoyl)-2-(dimethylamino)-3-(2-methoxyphenyl)-5,6,7,8-tetrahydropyrido[3,4-d]pyrimidin-4(3H)-one] | > 50 | 6.49
COc1ccccc1-n1c(NC(C)C2CC2)nc2c(c1=O)CCN(C(=O)c1ccc(Cl)c(Cl)c1)C2 (stereo not drawn) [Compound C47, 2-[(1-cyclopropylethyl)amino]-7-(3,4-dichlorobenzoyl)-3-(2-methoxyphenyl)-5,6,7,8-tetrahydropyrido[3,4-d]pyrimidin-4(3H)-one] | 27.3 | 2.68
COc1ccccc1-n1c(NC2COC2)nc2c(c1=O)CCN(C(=O)c1ccc(Cl)c(Cl)c1)C2 [Compound C48, 7-(3,4-dichlorobenzoyl)-3-(2-methoxyphenyl)-2-[(oxetan-3-yl)amino]-5,6,7,8-tetrahydropyrido[3,4-d]pyrimidin-4(3H)-one] | > 50 | 30.1
CCC(C)Nc1nc2c(c(=O)n1-c1ccccc1OC)CCN(C(=O)c1ccc(Cl)c(Cl)c1)C2 (stereo not drawn) [Compound C49, 2-[(butan-2-yl)amino]-7-(3,4-dichlorobenzoyl)-3-(2-methoxyphenyl)-5,6,7,8-tetrahydropyrido[3,4-d]pyrimidin-4(3H)-one] | 26.8 | 2.41
COc1ccccc1-n1c(NCC2CC2)nc2c(c1=O)CCN(C(=O)c1ccc(Cl)c(Cl)c1)C2 [Compound C50, 2-[(cyclopropylmethyl)amino]-7-(3,4-dichlorobenzoyl)-3-(2-methoxyphenyl)-5,6,7,8-tetrahydropyrido[3,4-d]pyrimidin-4(3H)-one] | 26.7 | 5.85
COCCn1c(NCc2ccc(OC)cc2)nc2c(c1=O)CCN(C(=O)c1ccc(Cl)c(Cl)c1)C2 [Compound C51, 7-(3,4-dichlorobenzoyl)-3-(2-methoxyethyl)-2-{[(4-methoxyphenyl)methyl]amino}-5,6,7,8-tetrahydropyrido[3,4-d]pyrimidin-4(3H)-one] | 36.6 | 4.35
COc1ccc(CNc2nc3c(c(=O)n2C)CCN(C(=O)c2ccc(Cl)c(Cl)c2)C3)cc1 [Compound C52, 7-(3,4-dichlorobenzoyl)-2-{[(4-methoxyphenyl)methyl]amino}-3-methyl-5,6,7,8-tetrahydropyrido[3,4-d]pyrimidin-4(3H)-one] | > 50 | 5.1
COc1ccccc1-n1c(NC(C)(C)C)nc2c(c1=O)CCN(C(=O)c1ccc(Cl)c(Cl)c1)C2 [Compound C53, 2-(tert-butylamino)-7-(3,4-dichlorobenzoyl)-3-(2-methoxyphenyl)-5,6,7,8-tetrahydropyrido[3,4-d]pyrimidin-4(3H)-one] | 31.6 | 2.05
